Conditions: for log10 BCF / log10 biotransformation half-life (days): fish

| SMILES | boiling point [°C] | melting point [°C] | further results |
| --- | --- | --- | --- |
| CCCCCCCCCCCCCCCCCN | 336 | 49 | – |
| CC(CC(=O)O)C(=O)O (configuration not stated) | – | 118 | – |
| CCOP(=O)(OCC)Oc1cc(C)nc(C(C)C)n1 | – | – | log10 BCF: -0.35 |
| O=C(O)[C@H](O)[C@@H](O)C(=O)O | – | – | ready biodegradability: readily biodegradable |
| Clc1ccc(Cl)c(-c2c(Cl)cccc2Cl)c1 | – | – | log10 Koa: 8.45; log10 vapour pressure (mmHg): -4.65 |
| COc1cc(/C=C/C(=O)CC(=O)/C=C/c2ccc(O)c(OC)c2)ccc1O | – | 183 | – |
| CCCOC(=O)c1ccc(C(=O)OCCC)nc1 | – | – | ready biodegradability: not readily biodegradable |
| CNC[C@H](O)c1ccc(O)c(O)c1.O=C(O)[C@H](O)[C@@H](O)C(=O)O | – | 150 | – |
| C=CC(O)CCCCCC (configuration not stated) | 194 | – | – |
| CC(c1c(O)c2ccccc2oc1=O)c1c(O)c2ccccc2oc1=O | – | 178 | – |
| Cc1cc(Cl)ccc1OC(C)C(=O)O (configuration not stated) | 298 | 94.5 | log10 Koc (L/kg): 1.3 |
| CCC(C)CCCC(C)C (configuration not stated) | 160 | – | log10 vapour pressure (mmHg): 0.469; log10 biotransformation half-life (days): 0.61 |
| CC(=O)c1ccncc1 | 212 | 16 | log10 Henry constant (atm·m³/mol): -7.2 |
| CC(C)NCC1CCc2cc(CO)c([N+](=O)[O-])cc2N1 (configuration not stated) | – | 148 | – |
| COc1ccc([N+](=O)[O-])cn1 | – | 108 | – |
| CC(=O)CC(=O)Nc1ccc(-c2ccc(NC(=O)CC(C)=O)c(C)c2)cc1C | – | 212 | ready biodegradability: not readily biodegradable; log10 BCF: 0.2; log10 biotransformation half-life (days): -1.5 |
| C#CC(C)(C)NC(=O)c1ccc(F)cc1 | – | – | log10 Koc (L/kg): 1.68 |
| c1ccc2nc3ccccc3nc2c1 | – | 176 | log10 Koc (L/kg): 3.37 |
| CC1(C)S[C@@H]2[C@H](NC(=O)C3(N)CCCCC3)C(=O)N2[C@H]1C(=O)O | – | 182 | – |
| N#CNC(=N)N | – | 211 | ready biodegradability: not readily biodegradable; log10 BCF: 0.49 |

| SMILES | boiling point [°C] | melting point [°C] | further results |
| --- | --- | --- | --- |
| CC[N+](C)(C)C(C)CC(c1ccccc1)c1ccccc1.[Br-] (configuration not stated) | – | 204 | – |
| CCCCCCCCCS | 220 | -20.1 | log10 vapour pressure (mmHg): -0.881 |
| CCCCCCCC1CCCC(=O)O1 (configuration not stated) | – | -12 | – |
| C=CCNCCC | 112 | – | – |
| Cc1cccc2cccc(C)c12 | 270 | 65 | log10 vapour pressure (mmHg): -2.32 |
| CC(C)CCC(C)(C)O | 154 | – | – |
| O=c1ccn([C@H]2CC[C@@H](CO)O2)c(=O)[nH]1 | – | 128 | – |
| CC(=O)c1ccc(O)cc1C | 313 | 128 | – |
| CC(C(=O)[O-])c1ccccc1 (configuration not stated) | 261 | – | – |
| O=C(O)c1cccnc1C(=O)O | – | 228 | ready biodegradability: readily biodegradable |
| Clc1cccc(-c2cc(Cl)ccc2Cl)c1 | – | – | log10 Henry constant (atm·m³/mol): -3.7 |
| Nc1ccc(Cc2ccc(N)c(Cl)c2)cc1Cl | 379 | 110 | ready biodegradability: not readily biodegradable; log10 BCF: 2.24; log10 biotransformation half-life (days): -0.15 |
| Nc1nc(N)c2nc(-c3ccccc3)c(N)nc2n1 | – | 316 | – |
| OCC(Br)(Br)Br | – | 81 | – |
| O=C(O)CSCc1ccccc1 | – | 61 | – |
| COC(=O)c1ccccc1S(=O)(=O)NC(=O)Nc1nc(C)cc(C)n1 | – | 204 | log10 Koc (L/kg): 1.62 |
| COC(=O)CC(=O)C(C)(C)C | – | – | ready biodegradability: not readily biodegradable |
| Nc1ccc2ccccc2c1N=Nc1ccccc1 | – | 103 | – |
| CCOc1ccccc1N | 232 | – | – |
| Nc1cccc2cccc(S(=O)(=O)O)c12 | – | – | ready biodegradability: not readily biodegradable |

| SMILES | boiling point [°C] | melting point [°C] | further results |
| --- | --- | --- | --- |
| O=C(O)CCCCCCCCCCCCCCCCCCC(=O)O | – | 126 | – |
| CCCCCCCCCCCCCCCCCCCCCCCCCCCCCCCCCCCCCCCC | – | 82 | ready biodegradability: readily biodegradable |
| COBOC | 25.9 | -131 | – |
| O=[N+]([O-])c1ccc(CO)cc1 | – | 96.5 | – |
| Brc1cccc(Br)c1 | 218 | -7 | log10 vapour pressure (mmHg): -0.571; log10 BCF: 2.82; log10 biotransformation half-life (days): 1.16 |
| CSc1ccc(O)cc1C | – | – | ready biodegradability: not readily biodegradable |
| COc1c(OC)c2occc2c2oc(=O)ccc12 | – | 119 | – |
| CCOC(=O)C(F)Cl (configuration not stated) | 129 | – | – |
| CNC(=O)ON=C(C)C(C)SC (configuration not stated) | – | 25 | log10 vapour pressure (mmHg): -4.1 |
| CC1(C)[C@@H]2CC[C@]1(C)[C@H](O)C2 | – | – | log10 vapour pressure (mmHg): -1.3 |
| CI | 42.5 | -66.4 | log10 Henry constant (atm·m³/mol): -2.28; log10 Koa: 2.16; log10 vapour pressure (mmHg): 2.61 |
| O=C(O)CCCCCc1ccccc1 | – | 23 | – |
| CCC(=O)OCC1CCCO1 (configuration not stated) | 206 | – | – |
| CC1=CCC(C(C)(C)O)CC1 (configuration not stated) | 219 | 37 | log10 Henry constant (atm·m³/mol): -5.65; log10 vapour pressure (mmHg): -1.37; ready biodegradability: readily biodegradable |
| COc1ccc(N(CCCC(=O)O)C(=O)c2ccc(Cl)cc2)cc1 | – | 116 | – |
| COC(=O)Nc1nc2ccccc2[nH]1 | – | – | log10 Koc (L/kg): 2.35; log10 vapour pressure (mmHg): -9.12; ready biodegradability: not readily biodegradable; log10 BCF: 0.4 |
| N=CNO | – | 114 | – |
| Oc1ccccc1N=Nc1ccccc1O | – | 173 | – |
| C/C=C/C#N | – | -51.5 | – |
